In patent publication US12312355B2, “1H-[1, 2, 3]triazolo[4, 5-h] quinazoline compounds acting as protein kinase inhibitors” (CHENGDU CYNOGEN BIO-PHARMACEUTICAL TECHNOLOGY CO., LTD., priority 2019, dated 2025) one finds IC50 data, which are given here for 22 compounds.

pIC50: −log10 of the molar value. Structures can show the parent of a compound that is named as a salt.

One assay addresses CDK4/cyclin D3 (Homo sapiens (Human), UniProt P11802). As to the kind of experiment: Kinase activity assay, Caliper Mobility Shift Assay, CDK4/cyclin D3. Type of assay: biochemical. The conditions noted are these: class symbols. As for the experimental part:
The inhibitory effect of the compound on the kinase CDK4/cyclin D3 was tested by the Caliper Mobility Shift Assay method. The final test concentration of the compound was 10 concentrations, which started from […] and were obtained by three-fold dilution. 5 μL of 5-fold final concentration compound and 10 μL of CDK4/Cyclin D3 kinase solution with final concentration of 10 nM were added to the 384-well reaction plate respectively, and pre incubated at room temperature for 10 minutes (the negative control well contained 10 μL kinase buffer and 5 μL 5% DMSO; the positive control well contained 10 μL kinase solution and 5 μL 5% DMSO). The mixture of 10 μL ATP with a final concentration of 250 μM and the corresponding substrate peptide was added to initiate the reaction, and the mixture was reacted at room temperature for 150 minutes. 30 μL of stop test solution containing EDTA was added to stop the kinase reaction. Conversion rate was read by Caliper EZ Reader. Conversion inhibition rate %=(average conversion rate of positive control %−sample conversion rate %)/(average conversion rate of positive control %−average conversion rate of negative control %). Wherein: the negative control well represents conversion rate reading of wells without enzyme activity; the positive control well represents conversion rate reading of wells without compound inhibition. The log value of concentration was taken as the X-axis and the percentage inhibition rate was the Y-axis. […] Calculation formula: Y=Bottom+(Top−Bottom)/(1+10^((Log IC50−X)*HillSlope)).

In the next assay the target is CDK6/cyclin D3 (Homo sapiens (Human), UniProt Q00534). Put plainly: Kinase activity assay, Caliper Mobility Shift Assay, CDK6/cyclin D3. Type of assay: biochemical. The conditions noted are these: class symbols.
CDK6/cyclin D3, sequence (Q00534 whole entry, species assumed): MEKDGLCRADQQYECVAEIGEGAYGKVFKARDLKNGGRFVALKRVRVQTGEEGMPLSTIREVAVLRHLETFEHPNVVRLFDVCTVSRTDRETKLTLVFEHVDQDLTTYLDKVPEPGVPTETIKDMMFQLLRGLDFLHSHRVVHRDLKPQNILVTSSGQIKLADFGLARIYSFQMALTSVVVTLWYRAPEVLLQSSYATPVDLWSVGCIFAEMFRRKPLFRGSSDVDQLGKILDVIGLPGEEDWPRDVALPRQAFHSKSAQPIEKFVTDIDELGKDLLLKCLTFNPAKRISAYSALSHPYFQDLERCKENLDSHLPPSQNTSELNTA
CDK6/cyclin D3, sequence (P30281 whole entry partner, species assumed): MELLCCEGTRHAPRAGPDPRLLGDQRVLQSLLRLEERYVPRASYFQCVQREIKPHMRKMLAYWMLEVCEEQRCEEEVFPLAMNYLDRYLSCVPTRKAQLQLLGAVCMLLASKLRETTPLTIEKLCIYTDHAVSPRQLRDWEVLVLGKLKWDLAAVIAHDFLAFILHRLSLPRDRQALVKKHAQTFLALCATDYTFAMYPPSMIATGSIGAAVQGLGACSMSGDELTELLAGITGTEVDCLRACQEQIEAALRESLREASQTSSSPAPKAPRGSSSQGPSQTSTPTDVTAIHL

CDK4/cyclin D3, sequence (P11802 whole entry, species assumed): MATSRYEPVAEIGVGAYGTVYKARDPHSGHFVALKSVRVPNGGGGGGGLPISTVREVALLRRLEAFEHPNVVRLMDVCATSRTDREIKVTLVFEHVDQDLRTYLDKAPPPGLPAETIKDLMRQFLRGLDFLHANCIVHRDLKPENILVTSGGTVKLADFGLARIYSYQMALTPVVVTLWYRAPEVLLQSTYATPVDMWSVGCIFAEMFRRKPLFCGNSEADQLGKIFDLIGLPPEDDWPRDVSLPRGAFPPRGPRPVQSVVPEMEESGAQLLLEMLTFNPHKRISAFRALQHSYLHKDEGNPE
CDK4/cyclin D3, sequence (P30281 whole entry partner, species assumed): as the sequence (P30281 whole entry partner, species assumed) above

As a reminder, the pIC50 is the IC50 on a negative log10 scale, so that one unit is a factor of ten. Consider `CC(C)n1nnc2ccc3cnc(Nc4ccc(N5CCNCC5)cn4)nc3c21` [Compound I-1, 1-Isopropyl-N-(5-(piperazin-1-yl)pyridin-2-yl)-1H-[1,2,3]triazolo[4,5-h]quinazolin-8-amine hydrochloride], for which the negative-log IC50 (pIC50) at CDK4/cyclin D3 and at CDK6/cyclin D3 was more than 8.00 throughout.
In the case of `CC(C)n1nnc2ccc3cnc(Nc4ccc(N5CCOCC5)cn4)nc3c21` [Compound I-6, 1-Isopropyl-N-(5-morpholinopyridin-2-yl)-1H-[1,2,3]triazolo[4,5-h]quinazo-lin-8-amine hydrochloride], the pIC50 on CDK4/cyclin D3 is more than 8.00; at CDK6/cyclin D3, 7.30 to 8.00.
Consider `CC(C)n1nnc2ccc3cnc(Nc4ccc(N5CC6(CCNCC6)C5)cn4)nc3c21` [Compound I-17, N-(5-(2,7-Diazaspiro[3.5]nonan-2-yl)pyridin-2-yl)-1-isopropyl-1H-[1,2,3]tri-azolo[4,5-h]quinazolin-8-amine hydrochloride], for which the pIC50 was more than 8.00 on CDK4/cyclin D3 and 7.30 to 8.00 on CDK6/cyclin D3.
As to `CCN1CCN(c2ccc(Nc3ncc4ccc5nnn(C(C)C)c5c4n3)nc2)CC1` [Compound I-5, N-(5-(4-Ethylpiperazin-1-yl)pyridin-2-yl)-1-isopropyl-1H-[1,2,3]triazolo[4,5-h]quinazolin-8-amine hydrochloride], the pIC50 at CDK4/cyclin D3 and at CDK6/cyclin D3 was more than 8.00 throughout.
With `CC(C)CN1CCN(c2ccc(Nc3ncc4ccc5nnn(C(C)C)c5c4n3)nc2)CC1` [Compound I-9, N-(5-(4-Isobutylpiperazin-1-yl)pyridin-2-yl)-1-isopropyl-1H-[1,2,3]triazolo [4,5-h]quinazolin-8-amine hydrochloride], the negative-log IC50 (pIC50) on CDK4/cyclin D3 and on CDK6/cyclin D3 was more than 8.00 in each case.
Turning to `CC(C)n1nnc2ccc3cnc(Nc4ccc(C5CCNCC5)cn4)nc3c21` [Compound I-12, 1-Isopropyl-N-(5-(piperidin-4-yl)pyri-din-2-yl)-1H-[1,2,3]triazolo[4,5-h]quin-azolin-8-amine hydrochloride], the pIC50 on CDK4/cyclin D3 and at CDK6/cyclin D3 was more than 8.00 throughout.
For the compound `Cc1nc(Nc2ncc3ccc4nnn(C(C)C)c4c3n2)ccc1N1CCNCC1` [Compound I-3, 1-Isopropyl-N-(6-methyl-5-(piperazin-1-yl)pyridin-2-yl)-1H-[1,2,3]triazolo[4,5-h]quinazolin-8-amine hydrochloride], the negative logarithm of the IC50 (pIC50) on CDK4/cyclin D3 and on CDK6/cyclin D3 was more than 8.00 in each case.
`CC(C)n1nnc2ccc3cnc(Nc4ccc(N5CCC(N(C)C)CC5)cn4)nc3c21` [Compound I-11, N-(5-(4-(Dimethylamino)piperidin-1-yl)pyridin-2-yl)-1-isopropyl-1H-[1,2,3] triazolo[4,5-h]quinazolin-8-amine hydrochloride]: the pIC50 on CDK4/cyclin D3 and at CDK6/cyclin D3 was more than 8.00 each time.
Regarding `CC(C)n1nnc2ccc3cnc(Nc4ccc(N5CCNCC5)nn4)nc3c21` [Compound I-13, 1-Isopropyl-N-(6-(piperazin-1-yl)pyri-dazin-3-yl)-1H-[1,2,3]triazolo[4,5-h]quin-azolin-8-amine hydrochloride], the pIC50 was more than 8.00 at CDK4/cyclin D3 and 7.30 to 8.00 at CDK6/cyclin D3.
On the same counts, the results for `CCN1CCN(Cc2ccc(Nc3ncc4ccc5nnn(C(C)C)c5c4n3)nc2)CC1` [Compound I-10, N-(5-((4-Ethylpiperazin-1-yl)methyl)pyridin-2-yl)-1-isopropyl-1H-[1,2,3]tri-azolo[4,5-h]quinazolin-8-amine hydrochloride] are more than 8.00 and 7.30 to 8.00.
On the same counts, the results for `CCN1CCN(c2ccc(Nc3ncc4ccc5nnn(CC(C)C)c5c4n3)nc2)CC1` [Compound I-20, N-(5-(4-Ethylpiperazin-1-yl)pyridin-2-yl)-1-isobutyl-1H-[1,2,3]triazolo[4,5-h] quinazolin-8-amine] are more than 8.00 and 7.30 to 8.00.
Consider `CC(C)n1nnc2ccc3cnc(Nc4ccc(N5CCNCC5=O)cn4)nc3c21` [Compound I-14, 1-(6-((1-Isopropyl-1H-[1,2,3]triazolo[4,5-h]quinazolin-8-yl)amino)pyridin-3-yl)piperazin-2-one hydrochloride], for which the results for the pIC50 at CDK4/cyclin D3 and at CDK6/cyclin D3 were more than 8.00 and 7.30 to 8.00, respectively.
As for `CC(C)Cn1nnc2ccc3cnc(Nc4ccc(N5CCOCC5)cn4)nc3c21` [Compound I-21, 1-Isobutyl-N-(5-morpholinopyridin-2-yl)-1H-[1,2,3]triazolo[4,5-h]quinazolin-8-amine], the pIC50 is 7.30 to 8.00 at CDK4/cyclin D3 and 7.00 to 7.30 at CDK6/cyclin D3.
On the same counts, the results for `COc1ccc2cc(Nc3ncc4ccc5nnn(C(C)C)c5c4n3)ccc2n1` [Compound I-16, 1-Isopropyl-N-(2-methoxyquinolin-6-yl)-1H-[1,2,3]triazolo[4,5-h]quinazolin-8-amine hydrochloride] are more than 8.00 and more than 8.00.
On the same counts, the results for `CC(C)N1CCN(c2ccc(Nc3ncc4ccc5nnn(C(C)C)c5c4n3)nc2)CC1` [Compound I-7, 1-Isopropyl-N-(5-(4-isopropylpiperazin-1-yl)pyridin-2-yl)-1H-[1,2,3]triazolo [4,5-h]quinazolin-8-amine hydrochloride] are more than 8.00 and more than 8.00.
On the same counts, the results for `Cc1cc(Nc2ncc3ccc4nnn(C(C)C)c4c3n2)ncc1N1CCNCC1` [Compound I-2, 1-Isopropyl-N-(4-methyl-5-(piperazin-1-yl)pyridin-2-yl)-1H-[1,2,3]triazolo[4,5-h]quinazolin-8-amine hydrochloride] are 7.30 to 8.00 and 7.00 to 7.30.
Regarding `CC(C)n1nnc2ccc3cnc(Nc4ccc(N5CCN(C6CC6)CC5)cn4)nc3c21` [Compound I-8, N-(5-(4-Cyclopropylpiperazin-1-yl)py-ridin-2-yl)-1-isopropyl-1H-[1,2,3]tri-azolo[4,5-h]quinazolin-8-amine hydrochloride], the pIC50 on CDK4/cyclin D3 is more than 8.00; on CDK6/cyclin D3 it was 7.30 to 8.00.
As to `CN1CCN(c2ccc(Nc3ncc4ccc5nnn(C6CCCC6)c5c4n3)nc2)CC1` [Compound I-23, 1-Cyclopentyl-N-(5-(4-methylpiperazin-1-yl)pyridin-2-yl)-1H-[1,2,3]triazolo[4,5-h] quinazolin-8-amine], the pIC50 on CDK4/cyclin D3 was more than 8.00; at CDK6/cyclin D3, 7.30 to 8.00.
On the same counts, the results for `CC(C)Cn1nnc2ccc3cnc(Nc4ccc(N5CCN(C)CC5)cn4)nc3c21` [Compound I-19, 1-Isobutyl-N-(5-(4-methylpiperazin-1-yl)pyridin-2-yl)-1H-[1,2,3]triazolo[4,5-h]quinazolin-8-amine hydrochloride] are more than 8.00 and 7.30 to 8.00.
Regarding `c1cc(Nc2ncc3ccc4nnn(C5CCCC5)c4c3n2)ncc1N1CCNCC1` [Compound I-22, 1-Cyclopentyl-N-(5-(piperazin-1-yl)pyridin-2-yl)-1H-[1,2,3]triazolo[4,5-h]quinazolin-8-amine hydrochloride], the pIC50 at CDK4/cyclin D3 and on CDK6/cyclin D3 was more than 8.00 each time.
Take `CC(C)Cn1nnc2ccc3cnc(Nc4ccc(N5CCNCC5)cn4)nc3c21` [Compound I-18, 1-Isobutyl-N-(5-(piperazin-1-yl)pyridin-2-yl)-1H-[1,2,3]triazolo[4,5-h]quina-zolin-8-amine]: the pIC50 was more than 8.00 at CDK4/cyclin D3 and 7.30 to 8.00 at CDK6/cyclin D3.
In the case of `CC(C)n1nnc2ccc3cnc(Nc4ccc(N5CCS(=O)(=O)CC5)cn4)nc3c21` [Compound I-15, 4-(6-((1-Isopropyl-1H-[1,2,3]triazolo[4,5-h]quinazolin-8-yl)amino)pyridin-3-yl)thiomorpholine 1,1-dioxide hydrochloride], the values for the pIC50 at CDK4/cyclin D3 and at CDK6/cyclin D3 were more than 8.00 and 7.30 to 8.00, respectively.
